“And” between values parts separate entries of the source, which are not always exact repeats. Equal values may be shown once. Read-outs that look alike come from different tables or passages of the source.
How the values were obtained:
[1] = test system: SARS-CoV-2 WA1/2020; type: in vivo, ferret (Mustela putorius furo); settings: for Transform of Nasal lavage titer, Mean Diff. (Vehicle vs. treated) / Transform of Nasal lavage titer, Mean 2 (treated group): Fig 3b; for Transform of Nasal lavage titer, Mean Diff. (Vehicle vs. treated) / Transform of Nasal lavage titer, Mean 2 (treated group) / Transform of Nasal Turbinate titer, Mean 2 (treated group) / Transform of Nasal Turbinate titer, Mean Diff. (Vehicle vs. treated): b.i.d.; for Transform of Nasal Turbinate titer, Mean 2 (treated group) / Transform of Nasal Turbinate titer, Mean Diff. (Vehicle vs. treated): Fig 3c; for Transform of Nasal Lavage RNA copies, Mean 2 (treated group) / Transform of Nasal Lavage RNA copies, Mean Diff. (Vehicle vs. treated): Fig 3f; as to Transform of Nasal Lavage RNA copies, Mean 2 (treated group): unit not given here; as to Transform of Nasal Lavage RNA copies, Mean Diff. (Vehicle vs. treated): unit not given here; as to Transform of Nasal lavage titer, Mean 2 (treated group): unit not given here; as to Transform of Nasal lavage titer, Mean Diff. (Vehicle vs. treated): unit not given here
[2] = test system: “F2” primary HAE cells; test: Cytotoxicity assay (PrestoBlue), “F2” HAE; settings: 72 h; for % cell viability: F2 HAE

## CC(C)C(=O)OCC1OC(C#N)(c2ccc3c(N)ncnn23)C(OC(=O)C(C)C)C1OC(=O)C(C)C (stereo not shown) [GS-621763]
[1]; Day 1.5, 10 mg/kg
  Transform of Nasal lavage titer, Mean Diff. (Vehicle vs. treated): 2.379
[1]; Day 2, 3 mg/kg
  Transform of Nasal lavage titer, Mean 2 (treated group): 3.882
  Transform of Nasal lavage titer, Mean Diff. (Vehicle vs. treated): 0.3882
[1]; Day 2, 10 mg/kg
  Transform of Nasal lavage titer, Mean 2 (treated group): 1.369
  Transform of Nasal lavage titer, Mean Diff. (Vehicle vs. treated): 2.901
[1]; Day 2.5, 3 mg/kg
  Transform of Nasal lavage titer, Mean 2 (treated group): 3.714
  Transform of Nasal lavage titer, Mean Diff. (Vehicle vs. treated): 0.4855
[1]; Day 2.5, 10 mg/kg
  Transform of Nasal lavage titer, Mean 2 (treated group): 1.314
  Transform of Nasal lavage titer, Mean Diff. (Vehicle vs. treated): 2.886
[1]; Day 3, 3 mg/kg
  Transform of Nasal lavage titer, Mean 2 (treated group): 3.088
  Transform of Nasal lavage titer, Mean Diff. (Vehicle vs. treated): 0.713
[1]; Day 3, 10 mg/kg
  Transform of Nasal lavage titer, Mean 2 (treated group): 0.8495
  Transform of Nasal lavage titer, Mean Diff. (Vehicle vs. treated): 2.952
[1]; Day 3.5, 3 mg/kg
  Transform of Nasal lavage titer, Mean 2 (treated group): 3.452
  Transform of Nasal lavage titer, Mean Diff. (Vehicle vs. treated): 0.4247
[1]; Day 3.5, 10 mg/kg
  Transform of Nasal lavage titer, Mean 2 (treated group): 1.758
  Transform of Nasal lavage titer, Mean Diff. (Vehicle vs. treated): 2.118
[1]; Day 4, 3 mg/kg
  Transform of Nasal lavage titer, Mean 2 (treated group): 3.139
  Transform of Nasal lavage titer, Mean Diff. (Vehicle vs. treated): 0.849
[1]; Day 4, 10 mg/kg
  Transform of Nasal lavage titer, Mean 2 (treated group): 1
  Transform of Nasal lavage titer, Mean Diff. (Vehicle vs. treated): 2.988
[1]; 3 mg/kg
  Transform of Nasal Turbinate titer, Mean 2 (treated group): 4.557
  Transform of Nasal Turbinate titer, Mean Diff. (Vehicle vs. treated): 1.366
[1]; 10 mg/kg
  Transform of Nasal Turbinate titer, Mean 2 (treated group): 3.042
  Transform of Nasal Turbinate titer, Mean Diff. (Vehicle vs. treated): 2.881
[1]; Row 1 (time), 3mg/kg b.i.d.
  Transform of Nasal Lavage RNA copies, Mean 2 (treated group): 0
  Transform of Nasal Lavage RNA copies, Mean Diff. (Vehicle vs. treated): 0
[1]; Row 1 (time), 10mg/kg b.i.d.
  Transform of Nasal Lavage RNA copies, Mean 2 (treated group): 0
  Transform of Nasal Lavage RNA copies, Mean Diff. (Vehicle vs. treated): 0
[1]; Row 2 (time), 3mg/kg b.i.d.
  Transform of Nasal Lavage RNA copies, Mean 2 (treated group): 5.027
  Transform of Nasal Lavage RNA copies, Mean Diff. (Vehicle vs. treated): 0.585
[1]; Row 2 (time), 10mg/kg b.i.d.
  Transform of Nasal Lavage RNA copies, Mean 2 (treated group): 4.315
  Transform of Nasal Lavage RNA copies, Mean Diff. (Vehicle vs. treated): 1.297
[1]; Row 3 (time), 3mg/kg b.i.d.
  Transform of Nasal Lavage RNA copies, Mean 2 (treated group): 5.927
  Transform of Nasal Lavage RNA copies, Mean Diff. (Vehicle vs. treated): 0.2134
[1]; Row 3 (time), 10mg/kg b.i.d.
  Transform of Nasal Lavage RNA copies, Mean 2 (treated group): 4.129
  Transform of Nasal Lavage RNA copies, Mean Diff. (Vehicle vs. treated): 2.012
[1]; Row 4 (time), 3mg/kg b.i.d.
  Transform of Nasal Lavage RNA copies, Mean 2 (treated group): 5.77
  Transform of Nasal Lavage RNA copies, Mean Diff. (Vehicle vs. treated): -0.1446
[1]; Row 4 (time), 10mg/kg b.i.d.
  Transform of Nasal Lavage RNA copies, Mean 2 (treated group): 3.777
  Transform of Nasal Lavage RNA copies, Mean Diff. (Vehicle vs. treated): 1.849
[1]; Row 5 (time), 3mg/kg b.i.d.
  Transform of Nasal Lavage RNA copies, Mean 2 (treated group): 5.662
  Transform of Nasal Lavage RNA copies, Mean Diff. (Vehicle vs. treated): 0.07178
[1]; Row 5 (time), 10mg/kg b.i.d.
  Transform of Nasal Lavage RNA copies, Mean 2 (treated group): 3.751
  Transform of Nasal Lavage RNA copies, Mean Diff. (Vehicle vs. treated): 1.983
[1]; in vivo
  reduction of virus burden in the turbinates: one order of magnitude
  viral RNA copies in nasal lavages and turbinates vs vehicle: statistically significant mean reduction
  virus burden in the turbinates: approached the limit of detection
  virus load in nasal lavages vs vehicle: approximately one order of magnitude lower
  virus shedding in nasal lavages: near-detection level
[2]; 0.046 µM
  % cell viability: 84% and 81%
[2]; 1.235 µM
  % cell viability: 109%
[2]; 3.704 µM
  % cell viability: 109%
[2]; 33.333 µM
  % cell viability: 87% and 80%
[2]; “F2” HAE
  CC50: 43.8 µM

— paper PMC8571282 (Nature Communications, 2021)
